According to US20190192524A1, “Modulators of Caspase-6” (The University of British Columbia, priority 2014, published 2019):

Columns and labels:
recombinant caspase-6 = biological target: T1, recombinant caspase-6 (Homo sapiens, UniProt P55212); assay: Simultaneous caspase-6 cleavage and 586 fragment detection by FRET; type: biochemical; details: cell-free; Htt substrate from COS-7 cell lysates
T1 construct: purchased BioMol
T1 sequence (P55212 24-293): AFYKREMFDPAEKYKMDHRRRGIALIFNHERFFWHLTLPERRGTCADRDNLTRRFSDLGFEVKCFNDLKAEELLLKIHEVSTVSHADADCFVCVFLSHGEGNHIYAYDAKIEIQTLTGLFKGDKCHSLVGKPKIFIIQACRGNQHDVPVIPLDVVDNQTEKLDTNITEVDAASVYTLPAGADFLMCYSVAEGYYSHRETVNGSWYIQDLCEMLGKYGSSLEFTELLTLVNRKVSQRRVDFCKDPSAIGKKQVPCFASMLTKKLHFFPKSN
Protocol: Different concentrations of the PG3 compounds were incubated with the Htt protein and the caspase-6 enzyme. The Htt substrate from COS-7 cell lysates is cleaved by caspase 6 and fragments are detected by FRET between the N-terminal BKP1 antibody and the neo-epitope antibody against amino acid 586.
COS-7 cells were grown in DMEM supplemented with 10% fetal bovine serum, 1%/penicillin/streptomycin and 0.5% glutamine. Transfections were performed using the Fugene reagent (Roche) according to manufacturer's instructions. The transfected DNA encodes amino acids 1-1212 of the human Htt protein with 15 glutamines and a C-terminal HA-tag, under control of a CMV promoter (Warby, 2008, supra; Wellington et al., 2000. J Biol Chem 275:19831-19838). The construct that was transfected is 4c Htt, which contains D→A mutations at amino acids 513, 530, 552 and […] (SEQ ID NO: 1). 24 h after transfection, cells were harvested by trypsinization, pellets washed in PBS and lysed by suspension in lysis buffer (50 mM Tris pH 8, 150 mM NaCl, 1% Igepal, supplemented with 1× complete protease inhibitor (Roche) and 4 mM Pefabloc). Lysates were incubated on ice for 10 min, vortexed and sonicated for 4 sec before centrifugation at 21,000×g for 10 min at 4° C. Supernatants were saved, protein concentration determined with the Biorad DC assay and stored at −80° C. until use.
Dilution series of cell lysates and caspase-6 (2.2× final concentration) were prepared in FRET cleavage buffer (10 mM HEPES pH 7.4, 100 mM NaCl, 0.05% gelatin, 0.1% CHAPS, 2 mM DTT) since this buffer was previously found to best stabilize caspase-6 in dilute form at room temperature. For negative controls, 22 μM zVAD-fmk was added to the caspase-6 dilutions.
Tb-labelled BKP1 antibody and D2-labelled 586 antibody (Cisbio) were diluted to 1 ng/μl (Tb) and 10 ng/μl (D2) in FRET cleavage buffer and pre-mixed at a 1:1 ratio.
In each well of a white 384 well plate (Nunc), 10 μl cell lysate were mixed with 10 μl caspase and 2 μl antibody mix, the plate was centrifuged briefly and incubated in the Victor 3 multilabel plate reader (Perkin Elmer) at 37° C. FRET was measured every 30 min for up to 2 h with the following settings: Excitation: 340 nm, Emission 1: 615 nm, Emission 2: 665 nm, 50 μs delay, 200 μs window time, 2000 μs cycle time. To obtain the final FRET signal, the ratio between Emission 2/Emission 1 (D2/Tb signal) was calculated. After 2 h at 37° C., the assay plate was sealed and after further incubation at 4° C. for 20 h, the FRET signal was read again.

[1] = biological target: T2, human caspase 6 lacking the pro-domain (Homo sapiens, UniProt P55212); assay: Lamin A cleavage in HEK 293 cells overexpressing caspase-6 (Mesoscale ELISA); type: cell-based; design: The transfected DNA encodes amino acids 24-293 of the human caspase 6 enzyme with a C-terminal DDK tag; DDK-tag (C); expressed in transfected cells; host or cells: HEK 293; details: 24 hr incubation; cleaved lamin A quantified; read-out: HEK intracellular IC50
T2 sequence (P55212 with tags, fused parts or gaps): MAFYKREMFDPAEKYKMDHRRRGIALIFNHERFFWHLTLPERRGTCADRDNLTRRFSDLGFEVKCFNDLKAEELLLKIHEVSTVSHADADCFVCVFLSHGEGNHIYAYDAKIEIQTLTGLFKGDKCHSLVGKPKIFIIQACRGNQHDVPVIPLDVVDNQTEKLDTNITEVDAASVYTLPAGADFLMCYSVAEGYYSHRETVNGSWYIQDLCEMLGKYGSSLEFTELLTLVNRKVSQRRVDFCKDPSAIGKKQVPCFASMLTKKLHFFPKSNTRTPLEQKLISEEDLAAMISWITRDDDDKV
Protocol: HEK 293 cells were grown in DMEM supplemented with 10% fetal bovine serum, 1%/penicillin/streptomycin and 0.5% glutamine. Transfections were performed using the Fugene reagent (Roche) according to manufacturer's instructions. The transfected DNA encodes amino acids 24-293 of the human caspase 6 enzyme with a C-terminal DDK tag under the control of a CMV promoter (vector pCMVSport6) (SEQ ID NO: 2). The transfected HEK 293 were used to measure the intracellular activity of caspase-6 as evidenced by cleavage of the lamin substrate (described below).
The quantitative assessment of intracellular lamin cleavage in caspase-6 transfected HEK 293 cells was done as described previously (Ehrnhoefer et al. PLoS One, 2011. 6(11):e27680) Briefly, HEK 293 cell lysates were adjusted to 1 μg protein/μl in lysis buffer, diluted to 0.2 μg/μl in PBS and 5 μl were added to a Multi-Array high-bind 96 well plate (Mesoscale discovery). After incubation at room temperature for 1 h, the wells were blocked by adding 150 μl 5% BSA in PBS, followed by further incubation at room temperature for 1 h. Wells were then washed 3× with 150 μl PBS+0.05% Tween, and 25 μl antibody mix was added (Cell signaling #2036 at 1:100 dilution, Mesoscale discovery goat-anti-rabbit sulfo-tag at 1:500 dilution in PBS with 1% BSA). After lh incubation at room temperature, the wells were washed 3× with 150 μl PBS+0.05% Tween, and 150 μl/well 2× reading reagent (Mesoscale discovery) was added. The plate was read on a Sector imager 6000 (Mesoscale discovery).
The PG3 analog compounds were also tested for their ability to inhibit caspase-6 within cultured cells. HEK 293 cells were transfected with human caspase 6 lacking the pro-domain and were incubated with increasing concentrations of the PG3 analogs. After a 24 hr incubation, the excess compound was washed away, the cells were lysed and the amount of cleaved lamin A protein was quantified by the Mesoscale ELISA method.

[2] = biological target: T3, full-length human caspase-6 (Homo sapiens, UniProt P55212); assay: Western blot of Htt fragments in COS-7 cells co-transfected with Htt 1-1212AA and full-length caspase-6; type: cell-based; details: 3 uM inhibitor, 24 hr, vs DMSO
T3 construct: DDK-tag (C); expressed in transfected cells; host or cells: COS-7
T3 sequence (P55212 with tags, fused parts or gaps): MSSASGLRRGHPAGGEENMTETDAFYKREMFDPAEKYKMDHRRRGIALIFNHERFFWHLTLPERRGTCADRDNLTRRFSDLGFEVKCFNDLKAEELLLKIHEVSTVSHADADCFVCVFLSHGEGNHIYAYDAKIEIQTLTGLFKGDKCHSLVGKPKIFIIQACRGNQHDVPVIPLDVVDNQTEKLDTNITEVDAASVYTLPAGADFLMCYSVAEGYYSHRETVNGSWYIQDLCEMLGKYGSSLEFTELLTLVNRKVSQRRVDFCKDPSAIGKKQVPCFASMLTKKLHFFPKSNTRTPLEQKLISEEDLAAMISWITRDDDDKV
Protocol: (§1) COS-7 cells were co-transfected with the 1212 amino acid HTT fragment (SEQ ID NO: 3) and the full length human caspase-6 enzyme (SEQ ID NO:4). The co-transfected cells were exposed to either 10 uM of the PG3d compound, 3 uM of the Q-VD-Oph pan-caspase inhibitor or were treated with DMSO as a control. An aliquot of the cell lysates were subjected to Western blotting to detect HTT fragments with the Htt antibody 2166 (Millipore) and the presence of caspase-6 was detected using the HD91 antibody (Ehrnhoefer et al, HMG, 2014. 23(3):717-29). The remaining cell lysates (500 ug protein) were immunoprecipitated with 5 ug of Caspase-6 antibody for 16 hrs at 4 C. The immunoprecipitated proteins were then applied to acrylamide gels and immunoblotted to detect either the HTT fragments or the presence of the active caspase 6 enzyme using the antibodies described above.
Cos-7 cells were co-transfected with Htt 1-1212AA (SEQ ID NO:3) and full-length human caspase-6 (SEQ ID NO:6), and exposed to either the pan-caspase inhibitor Q-VD-OPh, the PG3d compound or DMSO as a negative control. As shown in the upper panel of FIG. 9A, control cells that received DMSO alone (lanes labelled n.t.) show the presence of the Htt 1212AA protein and the Htt proteolytic cleavage fragments including the 586, 552 and 513 amino acid fragments. […]

[3] = biological target: T4, interaction between 1212AA Htt and caspase-6 (Homo sapiens, UniProt P55212); assay: Co-immunoprecipitation of Htt with caspase-6 antibody from COS-7 lysates; type: cell-based; details: 3 uM inhibitor, vs DMSO
T4 construct: DDK-tag (C); expressed in transfected cells; host or cells: COS-7
T4 sequence (P55212 with tags, fused parts or gaps): T3 sequence (P55212 with tags, fused parts or gaps)
Protocol: as §1
As expected, the DMSO control lysates reveal a variety of Htt fragments within the immunocomplexes, including 513AA fragment generated by caspase-3 cleavage, the full-length 1212AA Htt and the 586AA fragment generated by caspase-6 cleavage. When the cells are treated with the pan-caspase inhibitor Q-VD-OPh, the amount of Htt cleavage fragments interacting with caspase-6 is reduced and it is evident that caspase-6 is primarily interacting with the 1212 AA Htt.

[4] = biological target: T2, human caspase 6 lacking the pro-domain; assay: Intracellular Htt cleavage by Western blot in co-transfected COS-7 cells; type: cell-based; design: DDK-tag (C); expressed in transfected cells; host or cells: COS-7; details: 3 uM inhibitor
Protocol: COS-7 cells were co-transfected with the 4c htt fragment and the human caspase-6 lacking the pro-domain which leads to fast autoactivation of the caspase-6 enzyme and the generation of the 586 aa Htt cleavage fragment. The co-transfected cells were exposed to either 10 uM of the PG3d compound, 3 uM of the Q-VD-Oph pan-caspase inhibitor or were left untreated. Non-transfected cells were included as a negative control and the purified 586 aa Htt fragment was included as a positive control. Cell lysates were subjected to Western blotting and the 586AA fragment generated intracellularly was detected with Htt antibody 2166 (Millipore). Caspase-6 expression and activation was assessed by Western blotting using antibody HD91 (Ehrnhoefer et al, HMG, 2014. 23(3):717-29).
COS-7 cells were co-transfected with the 4c htt fragment and the human caspase-6 lacking the pro-domain which leads to fast autoactivation of the caspase-6 enzyme and the generation of the 586 aa Htt cleavage fragment. […] Non-transfected cells were included as a negative control and the purified 586 aa Htt fragment was included as a positive control. […] The cell lysates were also assayed for the levels of active caspase 6 enzyme as shown in the lower panel of FIG. 5B.

For `O=C(C#Cc1ccccc1)NC(=O)Cc1ccccc1` [PG-3h, 3-Phenyl-N-(phenylacetyl)prop-2-ynamide], the IC50 (recombinant caspase-6) was 8.1 µM and the IC50 [1] was 4.8 µM.
With `O=c1oc(C#Cc2ccccc2)nc(O)c1-c1ccccc1` [PG-3e, 4-Hydroxy-5-phenyl-2-(phenylethynyl)-6H-1,3-oxazin-6-one] the melting point was 187 to 189 °C, the IC50 (recombinant caspase-6) was 3.9 µM and the IC50 [1] was 2.5 µM.
In the case of `O=c1oc(C#Cc2ccc(Cl)cc2)nc(O)c1-c1ccccc1` [PG-3g, 2-[(4-Chlorophenyl)ethynyl]-4-hydroxy-5-phenyl-6H-1,3-oxazin-6-one], the melting point is reported as 185 to 187 °C (dec.), the IC50 (recombinant caspase-6) is reported as 7.5 µM and the IC50 [1] is reported as 3.9 µM.
With `CC(C)[C@H](NC(=O)c1ccc2ccccc2n1)C(=O)N[C@@H](CC(=O)O)C(=O)COc1c(F)cccc1F` [Q-VD-Oph, reference compound] the “amount of Htt cleavage fragments” value [2] was “reduction”, the “amount of Htt cleavage fragments interacting with caspase-6” value [3] was “reduced” and the “cleavage of the Htt protein to the 586 amino acid fragment” value [4] was “reduced cleavage”. The “level of active caspase-6 enzyme” value [4] was “reduced level of active caspase-6 enzyme”.
Compound `CCCCc1c(O)nc(C#Cc2ccccc2)oc1=O` [PG-3, 5-Butyl-4-hydroxy-2-(phenylethynyl)-6H-1,3-oxazin-6-one] has a melting point of 157 to 159 °C and an IC50 (recombinant caspase-6) of 13.8 µM.
Work on `Cc1c(O)nc(C#Cc2ccccc2Cl)oc1=O` [PG-3f, 2-[(2-Chlorophenyl)ethynyl]-4-hydroxy-5-methyl-6H-1,3-oxazin-6-one] yielded a melting point of 175 to 178 °C and an IC50 (recombinant caspase-6) of 57.3 µM.
`Cc1c(O)nc(C#Cc2ccccc2)oc1=O` [PG-3a, 4-Hydroxy-5-methyl-2-(phenylethynyl)-6H-1,3-oxazin-6-one] showed a melting point of 184 to 186 °C, an IC50 (recombinant caspase-6) of 8.2 µM and an IC50 [1] of over 15 µM.
With `CC(C)c1c(O)nc(C#Cc2ccccc2)oc1=O` [PG-3c, 4-Hydroxy-5-isopropyl-2-(phenylethynyl)-6H-1,3-oxazin-6-one] the melting point was 202 to 203 °C, the IC50 (recombinant caspase-6) was 12.2 µM and the IC50 [1] was over 15 µM.
`CCc1c(O)nc(C#Cc2ccccc2)oc1=O` [PG-3b, 5-Ethyl-4-hydroxy-2-(phenylethynyl)-6H-1,3-oxazin-6-one] showed a melting point of 177 to 178 °C, an IC50 (recombinant caspase-6) of 8 µM and an IC50 [1] of 12.1 µM.
